Measurements reported in ChEMBL document CHEMBL1121794, “Octanol-physiological buffer distribution coefficients of lipophilic amines by reversed-phase high-performance liquid chromatography and their correlation with biological activity” (J Med Chem, 1981).

What was measured:
[1] = (§1) Partition coefficient (logD7.4); conditions: octanol/water, pH 7.4
[2] = octanol/water
Description: Partition coefficient (logD, measured by HPLC, log k')

[3] = not given; remark: listed apart in the source
[4] = not given; remark: listed apart in the source
[5] = not given; remark: listed apart in the source
[6] = not given; remark: listed apart in the source
[7] = not given; remark: listed apart in the source
[8] = not given; remark: listed apart in the source
[9] = not given; remark: listed apart in the source
[10] = not given; remark: listed apart in the source
[11] = not given; remark: listed apart in the source
[12] = not given; remark: listed apart in the source
[13] = as §1; conditions: octanol/water, pH 7.4; remark: listed apart in the source
[14] = not given; remark: listed apart in the source
[15] = not given; remark: listed apart in the source
[16] = not given; remark: listed apart in the source
physchem [17] = conditions: octanol/water, pH 7.4
physchem [18] = conditions: octanol/water
physchem [19] = conditions: octanol/water; remark: listed apart in the source
Rattus norvegicus [20] = organism: Rattus norvegicus
Rattus norvegicus [21] = organism: Rattus norvegicus; remark: listed apart in the source
[22] = The compound was tested for its ability to inhibit Na+/K+ ATPase in rat brain.; assay type: tissue-based
Rattus norvegicus [23] = organism: Rattus norvegicus; assay: Apparent partition coefficient was measured as histamine releasing activity in rat mast cells.
[24] = octanol/water; remark: listed apart in the source
Rattus norvegicus [25] = organism: Rattus norvegicus; remark: listed apart in the source
[26] = octanol/water; remark: listed apart in the source
[27] = target: Serum albumin (Bos taurus) (UniProt P02769); assay: BSA binding (log K)
[28] = (§2) logD (measured by HPLC) (as log k'); assay type: ADME
[29] = as §2; assay type: ADME; remark: listed apart in the source
[30] = as §2; assay type: ADME; remark: listed apart in the source
Rattus norvegicus [31] = organism: Rattus norvegicus; assay: pKa value was measured by water/octanol using shake-flask method.
[32] = not given; remark: listed apart in the source
[33] = not given; remark: listed apart in the source
[34] = as §1; assay type: physicochemical; conditions: octanol/water, pH 7.4
[35] = (§3) Partition coefficient (logD) (HPLC); assay type: physicochemical; conditions: octanol/water
[36] = as §3; assay type: physicochemical; conditions: octanol/water; remark: listed apart in the source
Rattus norvegicus [37] = organism: Rattus norvegicus; remark: listed apart in the source

COc1ccccc1N1CCN(CCCC(=O)c2ccc(F)cc2)CC1 [FLUANISONE]
logD [1]: 2.93 | Log k' [2]: 1.448 | Log k': 1.175 | Log k' [3]: 1.64 | Log k' [4]: 0.805 | Log k' [5]: 1.063 | Log k' [6]: 0.996 | Log k' [7]: 1.669 | Log k' [8]: 1.64

CN(C)CCCN1c2ccccc2CCc2ccccc21 [IMIPRAMINE]
Log k' [2]: 1.194 | Log k' [9]: 1.145 | Log k' [10]: 0.934 | Log k' [11]: 0.806 | Log k' [12]: 1.227

O=C(NC1CCN(CCc2c[nH]c3ccccc23)CC1)c1ccccc1 [INDORAMIN]
logD [13]: 2.27 | logD [1]: 2.313 | Log k' [2]: 0.858 | Log k' [9]: 0.536 | Log k' [10]: 0.413 | Log k' [14]: 0.536 | Log k' [11]: 0.348 | Log k' [15]: 0.136 | Log k' [16]: -0.055 | Log k' [6]: 0.297 | Log k' [7]: 1.049 | Log k' [12]: 1.028 | logD (physchem [17]): 2.28

Cc1cccc(C)c1NC(=O)C1CCCCN1C (stereo not drawn) [MEPIVACAINE]
logD [1]: 1.27 | Log k' [2]: -0.098 | Log k': -0.429 | Log k' [3]: 0.008 | Log k' [4]: -0.462 | Log k' [5]: -0.492 | Log k' [6]: -0.564 | Log k' [7]: 0.051 | Log k' [8]: 0.008 | logD (physchem [18]): 1.22 | logD (physchem [19]): 1.26

CN1CCCCC1CCN1c2ccccc2Sc2ccc([S+](C)[O-])cc21 (stereo not drawn) [MESORIDAZINE]
logD [1]: 1.8 | Log k' [2]: 1.045 | Log k': 0.923 | logD (physchem [18]): 1.84 | logD (physchem [19]): 1.78

O=[N+]([O-])c1ccccc1 [NITROBENZENE]
logD [1]: 1.88 | Log k' [2]: 0.564

CNCCC=C1c2ccccc2CCc2ccccc21 [NORTRIPTYLINE]
pKa [13]: 9.73 | logD [1]: 1.98 | Log k' [2]: 1.162 | Log k' [15]: 0.899 | Log k' [16]: 0.349 | Log 1/ED50 (Rattus norvegicus [20]): 1.76 | Papp (Rattus norvegicus [21]): 1.8 | logD (physchem [18]): 2.04 | logD (physchem [19]): 2.01

OCCN1CCN(CCCN2c3ccccc3Sc3ccc(Cl)cc32)CC1 [PERPHENAZINE]
pKa [13]: 7.8 | Activity [22]: 0.09 | Papp (Rattus norvegicus [23]): 2.95 | logD [24]: 1.473 | Log k' [3]: 1.749 | Log k' [8]: 2.287 | Log 1/ED50 (Rattus norvegicus [25]): 2.63 | logD [26]: 1.1 | Log K [27]: 3.57

CN1CCN(CCCN2c3ccccc3Sc3ccc(Cl)cc32)CC1 [PROCHLORPERAZINE]
pKa [13]: 8.1 | Log k' [28]: 2.292 | Log k' [4]: 1.907 | Log k' [5]: 1.571 | Log k' [8]: 2.767 | Log 1/ED50 (Rattus norvegicus [20]): 2.75 | Papp (Rattus norvegicus [21]): 2.4 | BSA binding [27]: 3.83

CN(C)CCCN1c2ccccc2Sc2ccccc21 [PROMAZINE]
pKa [13]: 9.42 | logD [1]: 2.48 | Log k' [28]: 1.47 | Log k' [2]: 1.378 | Log k' [10]: 1.117 | Log k' [14]: 1.465 | Log k' [11]: 0.907 | Log k' [15]: 1.252 | Log k' [16]: 0.505 | Log k' [6]: 0.927 | Log k' [7]: 1.351 | Log k' [12]: 1.345 | Log 1/ED50 (Rattus norvegicus [20]): 2.05 | Papp (Rattus norvegicus [21]): 2.15 | logD (physchem [17]): 2.54 | Log K [27]: 3.21

CC(CN1c2ccccc2Sc2ccccc21)N(C)C (stereo not drawn) [PROMETHAZINE]
logD [1]: 2.849 | Log k' [29]: 1.252 | Log k' [30]: 0.757 | Log k' [28]: 1.512 | Activity [22]: -0.37 | pKa (Rattus norvegicus [31]): 9.4 | Log k' [2]: 1.595 | Log k' [10]: 1.271 | Log k' [32]: 1.176 | Log k' [33]: 1.669 | Log k' [14]: 1.512 | Log k' [6]: 1.172 | Log k' [7]: 1.67 | Log 1/ED50 (Rattus norvegicus [25]): 1.82 | logD (physchem [17]): 2.79

CCC(=O)O[C@](Cc1ccccc1)(c1ccccc1)[C@H](C)CN(C)C [PROPOXYPHENE]
logD [1]: 2.36 | Log k' [2]: 1.124 | Log k': 0.795 | Log k' [14]: 0.656 | Log k' [3]: 0.769 | Log k' [4]: 0.673 | Log k' [5]: 0.483 | Log k' [7]: 1.263 | Log k' [8]: 1.259

CCN(CC)CCOc1ccc2c(c1)C(=O)c1cc(OCCN(CC)CC)ccc1-2 [TILORONE]
logD [1]: 1.47 | Log k' [29]: 0.051 | Log k' [30]: -0.412 | logD [34]: 1.47 | Log k' [2]: 0.183 | Log k' [9]: 0.701 | Log k' [10]: 0.325 | Log k' [32]: 0.113 | Log k' [33]: 0.229 | Log k' [14]: 0.701 | Log k' [6]: 0.007 | Log k' [7]: 0.234 | logD (physchem [17]): 1.31 | logD (physchem [18]): 1.44 | logD (physchem [19]): 1.48

CN1CCN(CCCN2c3ccccc3Sc3ccc(C(F)(F)F)cc32)CC1 [TRIFLUOPERAZINE]
logD [35]: 1.77 | logD [36]: 1.96 | pKa [13]: 8.1 | Activity [22]: 1.69 | Log k' [3]: 2.58 | Log k' [8]: 3.076 | Papp (Rattus norvegicus [37]): 3.9
